Measurements as given in ChEMBL document CHEMBL2346514, “Efficient synthesis and antimicrobial activity of some novel S-β-d-glucosides of 5-aryl-1,2,4-triazole-3-thiones derivatives” (2013).
≈ marks a conversion by molar mass, not a printed value. Calls of active or inactive are those of the source. No cut-off for these calls is given here.

tested on: Staphylococcus aureus; assay: Antibacterial activity against Staphylococcus aureus ATCC 6538 after 24 hrs by NCCLS method; assay type: functional; conditions: not given

Row | Molecule | MBC [µg/mL] | MIC [µg/mL]
1 | GENTAMICIN | 2 | 2

same assay, conditions: ATCC 6538, 24 h

Row | Molecule | MBC [µg/mL] | MIC [µg/mL]
2 | CC(=O)OC[C@H]1O[C@@H](Sc2nnc(-c3ccccc3)n2/N=C/c2cc(Cl)ccc2O)[C@H](OC(C)=O)[C@@H](OC(C)=O)[C@@H]1OC(C)=O | 128 (≈ 194 µM) | 64 (≈ 96.8 µM)
3 | OC(Cn1cncn1)(Cn1cncn1)c1ccc(F)cc1F [FLUCONAZOLE] | 32 (≈ 104 µM) | 16 (≈ 52.2 µM)
4 | CC(=O)OC[C@H]1O[C@@H](Sc2nnc(-c3ccccc3O)n2/N=C/c2ccccc2O)[C@H](OC(C)=O)[C@@H](OC(C)=O)[C@@H]1OC(C)=O | 128 (≈ 199 µM) | 128 (≈ 199 µM)
5 | CC(=O)OC[C@H]1O[C@@H](Sc2nnc(-c3ccccc3O)n2/N=C/c2cc(Br)cc(Br)c2O)[C@H](OC(C)=O)[C@@H](OC(C)=O)[C@@H]1OC(C)=O | 32 (≈ 40 µM) | 32 (≈ 40 µM)
6 | CC(=O)OC[C@H]1O[C@@H](Sc2nnc(-c3ccccc3)n2/N=C/c2cc(Br)cc(Br)c2O)[C@H](OC(C)=O)[C@@H](OC(C)=O)[C@@H]1OC(C)=O | 32 (≈ 40.8 µM) | 16 (≈ 20.4 µM)
7 | CC(=O)OC[C@H]1O[C@@H](Sc2nnc(-c3ccccc3O)n2/N=C/c2cc(Cl)ccc2O)[C@H](OC(C)=O)[C@@H](OC(C)=O)[C@@H]1OC(C)=O | 128 (≈ 189 µM) | 128 (≈ 189 µM)
8 | CC(=O)OC[C@H]1O[C@@H](Sc2nnc(-c3ccccc3)n2/N=C/c2ccccc2)[C@H](OC(C)=O)[C@@H](OC(C)=O)[C@@H]1OC(C)=O | 64 (≈ 105 µM) | 64 (≈ 105 µM)
9 | CC(=O)OC[C@H]1O[C@@H](Sc2nnc(-c3ccccc3)n2/N=C/c2cc(Br)ccc2O)[C@H](OC(C)=O)[C@@H](OC(C)=O)[C@@H]1OC(C)=O | 32 (≈ 45.4 µM) | 32 (≈ 45.4 µM)
10 | CC(=O)OC[C@H]1O[C@@H](Sc2nnc(-c3ccccc3)n2/N=C/c2ccccc2O)[C@H](OC(C)=O)[C@@H](OC(C)=O)[C@@H]1OC(C)=O | 128 (≈ 204 µM) | 64 (≈ 102 µM)
11 | CC(=O)OC[C@H]1O[C@@H](Sc2nnc(-c3ccccc3)n2/N=C/c2ccccc2Cl)[C@H](OC(C)=O)[C@@H](OC(C)=O)[C@@H]1OC(C)=O | 128 (≈ 198 µM) | 128 (≈ 198 µM)
12 | Oc1cc(Cl)ccc1Oc1ccc(Cl)cc1Cl [TRICLOSAN] | 4 (≈ 13.8 µM) | 4 (≈ 13.8 µM)
13 | CC(=O)OC[C@H]1O[C@@H](Sc2nnc(-c3ccccc3O)n2/N=C/c2ccccc2)[C@H](OC(C)=O)[C@@H](OC(C)=O)[C@@H]1OC(C)=O | 256 (≈ 409 µM) | 128 (≈ 204 µM)
14 | CC(=O)OC[C@H]1O[C@@H](Sc2nnc(-c3ccccc3O)n2/N=C/c2ccccc2Cl)[C@H](OC(C)=O)[C@@H](OC(C)=O)[C@@H]1OC(C)=O | 128 (≈ 194 µM) | 128 (≈ 194 µM)
15 | CC(=O)OC[C@H]1O[C@@H](Sc2nnc(-c3ccccc3O)n2/N=C/c2cc(Br)ccc2O)[C@H](OC(C)=O)[C@@H](OC(C)=O)[C@@H]1OC(C)=O | 128 (≈ 177 µM) | 64 (≈ 88.7 µM)

tested on: Escherichia coli; assay: Antibacterial activity against Escherichia coli ATCC 8099 after 24 hrs by NCCLS method; assay type: functional; conditions: not given

Row | Molecule | MBC | MIC
16 | CC(=O)OC[C@H]1O[C@@H](Sc2nnc(-c3ccccc3)n2/N=C/c2ccccc2O)[C@H](OC(C)=O)[C@@H](OC(C)=O)[C@@H]1OC(C)=O | inactive | inactive
17 | GENTAMICIN | 4 µg/mL | 2 µg/mL

same assay, conditions: ATCC 8099, 24 h

Row | Molecule | MBC [µg/mL] | MIC [µg/mL]
18 | CC(=O)OC[C@H]1O[C@@H](Sc2nnc(-c3ccccc3)n2/N=C/c2cc(Cl)ccc2O)[C@H](OC(C)=O)[C@@H](OC(C)=O)[C@@H]1OC(C)=O | 128 (≈ 194 µM) | 128 (≈ 194 µM)
19 | OC(Cn1cncn1)(Cn1cncn1)c1ccc(F)cc1F [FLUCONAZOLE] | 128 (≈ 418 µM) | 128 (≈ 418 µM)
20 | CC(=O)OC[C@H]1O[C@@H](Sc2nnc(-c3ccccc3O)n2/N=C/c2ccccc2O)[C@H](OC(C)=O)[C@@H](OC(C)=O)[C@@H]1OC(C)=O | 64 (≈ 99.6 µM) | 64 (≈ 99.6 µM)
21 | CC(=O)OC[C@H]1O[C@@H](Sc2nnc(-c3ccccc3O)n2/N=C/c2cc(Br)cc(Br)c2O)[C@H](OC(C)=O)[C@@H](OC(C)=O)[C@@H]1OC(C)=O | 16 (≈ 20 µM) | 16 (≈ 20 µM)
22 | CC(=O)OC[C@H]1O[C@@H](Sc2nnc(-c3ccccc3)n2/N=C/c2cc(Br)cc(Br)c2O)[C@H](OC(C)=O)[C@@H](OC(C)=O)[C@@H]1OC(C)=O | 16 (≈ 20.4 µM) | 16 (≈ 20.4 µM)
23 | CC(=O)OC[C@H]1O[C@@H](Sc2nnc(-c3ccccc3O)n2/N=C/c2cc(Cl)ccc2O)[C@H](OC(C)=O)[C@@H](OC(C)=O)[C@@H]1OC(C)=O | 256 (≈ 378 µM) | 128 (≈ 189 µM)
24 | CC(=O)OC[C@H]1O[C@@H](Sc2nnc(-c3ccccc3)n2/N=C/c2ccccc2)[C@H](OC(C)=O)[C@@H](OC(C)=O)[C@@H]1OC(C)=O | 128 (≈ 210 µM) | 128 (≈ 210 µM)
25 | CC(=O)OC[C@H]1O[C@@H](Sc2nnc(-c3ccccc3)n2/N=C/c2cc(Br)ccc2O)[C@H](OC(C)=O)[C@@H](OC(C)=O)[C@@H]1OC(C)=O | 128 (≈ 181 µM) | 128 (≈ 181 µM)
26 | CC(=O)OC[C@H]1O[C@@H](Sc2nnc(-c3ccccc3)n2/N=C/c2ccccc2Cl)[C@H](OC(C)=O)[C@@H](OC(C)=O)[C@@H]1OC(C)=O | 128 (≈ 198 µM) | 128 (≈ 198 µM)
27 | Oc1cc(Cl)ccc1Oc1ccc(Cl)cc1Cl [TRICLOSAN] | 4 (≈ 13.8 µM) | 2 (≈ 6.91 µM)
28 | CC(=O)OC[C@H]1O[C@@H](Sc2nnc(-c3ccccc3O)n2/N=C/c2ccccc2)[C@H](OC(C)=O)[C@@H](OC(C)=O)[C@@H]1OC(C)=O | 256 (≈ 409 µM) | 128 (≈ 204 µM)
29 | CC(=O)OC[C@H]1O[C@@H](Sc2nnc(-c3ccccc3O)n2/N=C/c2ccccc2Cl)[C@H](OC(C)=O)[C@@H](OC(C)=O)[C@@H]1OC(C)=O | 128 (≈ 194 µM) | 128 (≈ 194 µM)
30 | CC(=O)OC[C@H]1O[C@@H](Sc2nnc(-c3ccccc3O)n2/N=C/c2cc(Br)ccc2O)[C@H](OC(C)=O)[C@@H](OC(C)=O)[C@@H]1OC(C)=O | 128 (≈ 177 µM) | 128 (≈ 177 µM)

tested on: not listed separately; assay: Antifungal activity against Monilia albican ATCC 10231 after 24 to 72 hrs by NCCLS method; assay type: functional; conditions: not given

Row | Molecule | MFC [µg/mL] | MIC [µg/mL]
31 | CC(=O)OC[C@H]1O[C@@H](Sc2nnc(-c3ccccc3)n2/N=C/c2cc(Cl)ccc2O)[C@H](OC(C)=O)[C@@H](OC(C)=O)[C@@H]1OC(C)=O | 32 (≈ 48.4 µM) | 16 (≈ 24.2 µM)
32 | OC(Cn1cncn1)(Cn1cncn1)c1ccc(F)cc1F [FLUCONAZOLE] | 4 (≈ 13.1 µM) | 2 (≈ 6.53 µM)
33 | CC(=O)OC[C@H]1O[C@@H](Sc2nnc(-c3ccccc3O)n2/N=C/c2ccccc2O)[C@H](OC(C)=O)[C@@H](OC(C)=O)[C@@H]1OC(C)=O | 64 (≈ 99.6 µM) | 64 (≈ 99.6 µM)
34 | CC(=O)OC[C@H]1O[C@@H](Sc2nnc(-c3ccccc3O)n2/N=C/c2cc(Br)cc(Br)c2O)[C@H](OC(C)=O)[C@@H](OC(C)=O)[C@@H]1OC(C)=O | 32 (≈ 40 µM) | 16 (≈ 20 µM)
35 | CC(=O)OC[C@H]1O[C@@H](Sc2nnc(-c3ccccc3)n2/N=C/c2cc(Br)cc(Br)c2O)[C@H](OC(C)=O)[C@@H](OC(C)=O)[C@@H]1OC(C)=O | 16 (≈ 20.4 µM) | 16 (≈ 20.4 µM)
36 | CC(=O)OC[C@H]1O[C@@H](Sc2nnc(-c3ccccc3O)n2/N=C/c2cc(Cl)ccc2O)[C@H](OC(C)=O)[C@@H](OC(C)=O)[C@@H]1OC(C)=O | 32 (≈ 47.3 µM) | 16 (≈ 23.6 µM)
37 | CC(=O)OC[C@H]1O[C@@H](Sc2nnc(-c3ccccc3)n2/N=C/c2ccccc2)[C@H](OC(C)=O)[C@@H](OC(C)=O)[C@@H]1OC(C)=O | 64 (≈ 105 µM) | 32 (≈ 52.4 µM)
38 | CC(=O)OC[C@H]1O[C@@H](Sc2nnc(-c3ccccc3)n2/N=C/c2cc(Br)ccc2O)[C@H](OC(C)=O)[C@@H](OC(C)=O)[C@@H]1OC(C)=O | 16 (≈ 22.7 µM) | 16 (≈ 22.7 µM)
39 | CC(=O)OC[C@H]1O[C@@H](Sc2nnc(-c3ccccc3)n2/N=C/c2ccccc2O)[C@H](OC(C)=O)[C@@H](OC(C)=O)[C@@H]1OC(C)=O | 64 (≈ 102 µM) | 32 (≈ 51.1 µM)
40 | CC(=O)OC[C@H]1O[C@@H](Sc2nnc(-c3ccccc3)n2/N=C/c2ccccc2Cl)[C@H](OC(C)=O)[C@@H](OC(C)=O)[C@@H]1OC(C)=O | 64 (≈ 99.2 µM) | 64 (≈ 99.2 µM)
41 | Oc1cc(Cl)ccc1Oc1ccc(Cl)cc1Cl [TRICLOSAN] | 64 (≈ 221 µM) | 32 (≈ 111 µM)
42 | CC(=O)OC[C@H]1O[C@@H](Sc2nnc(-c3ccccc3O)n2/N=C/c2ccccc2)[C@H](OC(C)=O)[C@@H](OC(C)=O)[C@@H]1OC(C)=O | 32 (≈ 51.1 µM) | 32 (≈ 51.1 µM)
43 | GENTAMICIN | 4 | 4
44 | CC(=O)OC[C@H]1O[C@@H](Sc2nnc(-c3ccccc3O)n2/N=C/c2ccccc2Cl)[C@H](OC(C)=O)[C@@H](OC(C)=O)[C@@H]1OC(C)=O | 64 (≈ 96.8 µM) | 32 (≈ 48.4 µM)
45 | CC(=O)OC[C@H]1O[C@@H](Sc2nnc(-c3ccccc3O)n2/N=C/c2cc(Br)ccc2O)[C@H](OC(C)=O)[C@@H](OC(C)=O)[C@@H]1OC(C)=O | 16 (≈ 22.2 µM) | 16 (≈ 22.2 µM)
